This is an account of results in patent publication US20250171437A1 (Agios Pharmaceuticals,Inc., priority 2022, published 2025).

Structures are written as SMILES.

This experiment addresses T1, human PAH with the R408W mutation (A375 R408W cells) (Homo sapiens, UniProt P00439, R408W).
T1 construct: expressed in transfected cells
T1 sequence (P00439 1-452 R408W): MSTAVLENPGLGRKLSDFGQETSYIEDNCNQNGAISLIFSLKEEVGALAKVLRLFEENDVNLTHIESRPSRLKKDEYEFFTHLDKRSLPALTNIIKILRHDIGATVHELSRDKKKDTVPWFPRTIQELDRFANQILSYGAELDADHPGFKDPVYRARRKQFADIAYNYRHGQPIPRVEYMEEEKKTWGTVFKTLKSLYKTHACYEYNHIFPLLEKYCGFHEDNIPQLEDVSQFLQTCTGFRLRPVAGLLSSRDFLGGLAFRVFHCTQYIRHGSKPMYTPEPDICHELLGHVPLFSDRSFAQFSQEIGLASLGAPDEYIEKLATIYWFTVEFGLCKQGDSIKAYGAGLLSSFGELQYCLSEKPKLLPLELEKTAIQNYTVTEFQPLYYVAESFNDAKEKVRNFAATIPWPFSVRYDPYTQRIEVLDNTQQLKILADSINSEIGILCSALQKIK
Nature of the experiment: Cell Based Phenylalanine Flux Assay. As to conditions: A375 R408W cells; 24 hrs with compound, then 20 μM sepiapterin and 800 μM 13C9,15N-Phenylalanine for 4 hours; 13C-Tyrosine by LC-MS; average where tested multiple times. The method, boiled down: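 A375 cells stably expressing lentiviral human PAH R408W were treated with compounds (10-point 2-fold dilutions, 0.5% DMSO, duplicate) for 24 h at 37 °C. Then 20 μM sepiapterin and 800 μM 13C9,15N-Phe were added for 4 h; media 13C-Tyr was measured by LC-MS to give AC50.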
In general, AC50 refers to the concentration at which the activity in the assay is half-maximal. As to `CC(C)n1ncnc1C(=O)N1CCc2[nH]cnc2[C@H]1c1nc2ccccc2o1` [Example 705, (S)-(4-(benzo[d]oxazol-2-yl)-6,7-dihydro-1H-imidazo[4,5-c]pyridin-5(4H)-yl)(1-isopropyl-1H-1,2,4-triazol-5-yl)methanone], the AC50 is no more than 500 nM.
The value for `CC(C)n1ncnc1C(=O)N1CCc2[nH]cnc2[C@@H]1c1nc2ccccc2o1` [Example 706, (R)-(4-(benzo[d]oxazol-2-yl)-6,7-dihydro-1H-imidazo[4,5-c]pyridin-5(4H)-yl)(1-isopropyl-1H-1,2,4-triazol-5-yl)methanone] was 500 to 1000 nM; that for `CC(C)n1ncnc1C(=O)N1CCc2[nH]cnc2[C@H]1c1nc2cccc(F)c2o1` [Example 707, (S)-(4-(7-fluorobenzo[d]oxazol-2-yl)-6,7-dihydro-1H-imidazo[4,5-c]pyridin-5(4H)-yl)(1-isopropyl-1H-1,2,4-triazol-5-yl)methanone] was no more than 500 nM.
As to `CC(C)n1ncnc1C(=O)N1CCc2[nH]cnc2[C@@H]1c1nc2cccc(F)c2o1` [Example 708, (R)-(4-(7-fluorobenzo[d]oxazol-2-yl)-6,7-dihydro-1H-imidazo[4,5-c]pyridin-5(4H)-yl)(1-isopropyl-1H-1,2,4-triazol-5-yl)methanone], the AC50 lay in the range of 500 to 1000 nM.
The value for `Cc1cccc2nc([C@@H]3c4nc[nH]c4CCN3C(=O)c3ccnn3C(F)(F)F)oc12` [Example 710, (S)-(4-(7-methylbenzo[d]oxazol-2-yl)-6,7-dihydro-1H-imidazo[4,5-c]pyridin-5(4H)-yl)(1-(trifluoromethyl)-1H-pyrazol-5-yl)methanone] was no more than 500 nM; that for `Cn1nccc1C(=O)N1CCc2[nH]cnc2[C@H]1c1nc2ccccc2o1` [Example 711, (S)-(4-(benzo[d]oxazol-2-yl)-6,7-dihydro-1H-imidazo[4,5-c]pyridin-5(4H)-yl)(1-methyl-1H-pyrazol-5-yl)methanone] was 1000 to 5000 nM.
The value for `Cn1nccc1C(=O)N1CCc2[nH]cnc2[C@@H]1c1nc2ccccc2o1` [Example 712, (R)-(4-(benzo[d]oxazol-2-yl)-6,7-dihydro-1H-imidazo[4,5-c]pyridin-5(4H)-yl)(1-methyl-1H-pyrazol-5-yl)methanone] was 1000 to 5000 nM.
The result for `CC(C)(O)c1ncc(C(=O)N2CCc3[nH]cnc3[C@H]2c2nc3cccc(F)c3o2)o1` [Example 713, (S)-(4-(7-fluorobenzo[d]oxazol-2-yl)-6,7-dihydro-1H-imidazo[4,5-c]pyridin-5(4H)-yl)(2-(2-hydroxypropan-2-yl)oxazol-5-yl)methanone] reads 500 to 1000 nM; that for `CC(C)(O)c1ncc(C(=O)N2CCc3[nH]cnc3[C@@H]2c2nc3cccc(F)c3o2)o1` [Example 714, (R)-(4-(7-fluorobenzo[d]oxazol-2-yl)-6,7-dihydro-1H-imidazo[4,5-c]pyridin-5(4H)-yl)(2-(2-hydroxypropan-2-yl)oxazol-5-yl)methanone], 1000 to 5000 nM.
For the compound `COc1cc(F)cc2nc([C@@H]3c4nc[nH]c4CCN3C(=O)c3oc(C(C)(C)O)nc3C(F)F)oc12` [Example 715, (S)-(4-(difluoromethyl)-2-(2-hydroxypropan-2-yl)oxazol-5-yl)(4-(5-fluoro-7-methoxybenzo[d]oxazol-2-yl)-6,7-dihydro-1H-imidazo[4,5-c]pyridin-5(4H)-yl)methanone], the AC50 was no more than 500 nM.
As for `COc1cc(F)cc2nc([C@H]3c4nc[nH]c4CCN3C(=O)c3oc(C(C)(C)O)nc3C(F)F)oc12` [Example 716, (R)-(4-(difluoromethyl)-2-(2-hydroxypropan-2-yl)oxazol-5-yl)(4-(5-fluoro-7-methoxybenzo[d]oxazol-2-yl)-6,7-dihydro-1H-imidazo[4,5-c]pyridin-5(4H)-yl)methanone], the AC50 fell in the range of 1000 to 5000 nM.
Regarding `COc1cc(F)cc2nc([C@H]3c4nc[nH]c4CCN3C(=O)c3ocnc3C(F)F)oc12` [Example 717, (R)-(4-(difluoromethyl)oxazol-5-yl)(4-(5-fluoro-7-methoxybenzo[d]oxazol-2-yl)-6,7-dihydro-1H-imidazo[4,5-c]pyridin-5(4H)-yl)methanone], the AC50 was 500 to 1000 nM.
The result for `COc1cc(F)cc2nc([C@@H]3c4nc[nH]c4CCN3C(=O)c3ocnc3C(F)F)oc12` [Example 718, (S)-(4-(difluoromethyl)oxazol-5-yl)(4-(5-fluoro-7-methoxybenzo[d]oxazol-2-yl)-6,7-dihydro-1H-imidazo[4,5-c]pyridin-5(4H)-yl)methanone] reads no more than 500 nM.
Regarding `Cc1c(F)ccc2oc([C@@H]3c4nc[nH]c4CCN3C(=O)c3oc(C(C)(C)O)nc3C(F)F)nc12` [Example 719, (S)-(4-(difluoromethyl)-2-(2-hydroxypropan-2-yl)oxazol-5-yl)(4-(5-fluoro-4-methylbenzo[d]oxazol-2-yl)-6,7-dihydro-1H-imidazo[4,5-c]pyridin-5(4H)-yl)methanone], the AC50 is no more than 500 nM.
The result for `Cc1c(F)ccc2oc([C@H]3c4nc[nH]c4CCN3C(=O)c3oc(C(C)(C)O)nc3C(F)F)nc12` [Example 720, (R)-(4-(difluoromethyl)-2-(2-hydroxypropan-2-yl)oxazol-5-yl)(4-(5-fluoro-4-methylbenzo[d]oxazol-2-yl)-6,7-dihydro-1H-imidazo[4,5-c]pyridin-5(4H)-yl)methanone] reads 500 to 1000 nM; that for `Cc1c(F)ccc2oc([C@H]3c4nc[nH]c4CCN3C(=O)c3ocnc3C(F)F)nc12` [Example 721, (R)-(4-(difluoromethyl)oxazol-5-yl)(4-(5-fluoro-4-methylbenzo[d]oxazol-2-yl)-6,7-dihydro-1H-imidazo[4,5-c]pyridin-5(4H)-yl)methanone], 1000 to 5000 nM; that for `Cc1c(F)ccc2oc([C@@H]3c4nc[nH]c4CCN3C(=O)c3ocnc3C(F)F)nc12` [Example 722, (S)-(4-(difluoromethyl)oxazol-5-yl)(4-(5-fluoro-4-methylbenzo[d]oxazol-2-yl)-6,7-dihydro-1H-imidazo[4,5-c]pyridin-5(4H)-yl)methanone], no more than 500 nM.
The value for `Cc1ccc(F)c2nc([C@@H]3c4nc[nH]c4CCN3C(=O)c3oc(C(C)(C)O)nc3C(F)F)oc12` [Example 723, (S)-(4-(difluoromethyl)-2-(2-hydroxypropan-2-yl)oxazol-5-yl)(4-(4-fluoro-7-methylbenzo[d]oxazol-2-yl)-6,7-dihydro-1H-imidazo[4,5-c]pyridin-5(4H)-yl)methanone] was no more than 500 nM.
Consider `Cc1ccc(F)c2nc([C@H]3c4nc[nH]c4CCN3C(=O)c3oc(C(C)(C)O)nc3C(F)F)oc12` [Example 724, (R)-(4-(difluoromethyl)-2-(2-hydroxypropan-2-yl)oxazol-5-yl)(4-(4-fluoro-7-methylbenzo[d]oxazol-2-yl)-6,7-dihydro-1H-imidazo[4,5-c]pyridin-5(4H)-yl)methanone], for which the AC50 lay within 1000 to 5000 nM.
The result for `O=C(c1ccnn1C1CC1)N1CCc2[nH]cnc2[C@H]1c1nc2ccccc2o1` [Example 725, (S)-(4-(benzo[d]oxazol-2-yl)-6,7-dihydro-1H-imidazo[4,5-c]pyridin-5(4H)-yl)(1-cyclopropyl-1H-pyrazol-5-yl)methanone] reads no more than 500 nM.
As to `O=C(c1ccnn1C1CC1)N1CCc2[nH]cnc2[C@H]1c1nc2cccc(F)c2o1` [Example 727, (S)-(1-cyclopropyl-1H-pyrazol-5-yl)(4-(7-fluorobenzo[d]oxazol-2-yl)-6,7-dihydro-1H-imidazo[4,5-c]pyridin-5(4H)-yl)methanone], the AC50 was in the range of 500 to 1000 nM.
In the case of `O=C(c1ccnn1C1CC1)N1CCc2[nH]cnc2[C@@H]1c1nc2cccc(F)c2o1` [Example 728, (R)-(1-cyclopropyl-1H-pyrazol-5-yl)(4-(7-fluorobenzo[d]oxazol-2-yl)-6,7-dihydro-1H-imidazo[4,5-c]pyridin-5(4H)-yl)methanone], the AC50 is no less than 5000 nM.
The result for `O=C(c1ccnn1-c1ccccn1)N1CCc2[nH]cnc2[C@H]1c1nc2cccc(F)c2o1` [Example 729, (S)-(4-(7-fluorobenzo[d]oxazol-2-yl)-6,7-dihydro-1H-imidazo[4,5-c]pyridin-5(4H)-yl)(1-(pyridin-2-yl)-1H-pyrazol-5-yl)methanone] reads 500 to 1000 nM; that for `Cn1nc(C(F)F)cc1C(=O)N1CCc2[nH]cnc2[C@H]1c1nc2ccccc2o1` [Example 731, (S)-(4-(benzo[d]oxazol-2-yl)-6,7-dihydro-1H-imidazo[4,5-c]pyridin-5(4H)-yl)(3-(difluoromethyl)-1-methyl-1H-pyrazol-5-yl)methanone], no more than 500 nM.
In the case of `Cn1nc(C(F)F)cc1C(=O)N1CCc2[nH]cnc2[C@@H]1c1nc2ccccc2o1` [Example 732, (R)-(4-(benzo[d]oxazol-2-yl)-6,7-dihydro-1H-imidazo[4,5-c]pyridin-5(4H)-yl)(3-(difluoromethyl)-1-methyl-1H-pyrazol-5-yl)methanone], the AC50 is no less than 5000 nM.
The value for `Cn1nc(C(F)F)cc1C(=O)N1CCc2[nH]cnc2[C@H]1c1nc2cccc(F)c2o1` [Example 733, (S)-(3-(difluoromethyl)-1-methyl-1H-pyrazol-5-yl)(4-(7-fluorobenzo[d]oxazol-2-yl)-6,7-dihydro-1H-imidazo[4,5-c]pyridin-5(4H)-yl)methanone] was no more than 500 nM.
